We go through one compound from patent publication US20160280789A1, “METHODS FOR TREATING HEMATOLOGICAL MALIGNANCIES” (CHILDREN'S HOSPITAL LOS ANGELES, priority 2013, published 2016).

“Also recorded” adds a separate entry of the source. Read-outs that look alike come from different tables or passages of the source.

Test [1] has as its system BCR-ABL-1+ ITGA6fl/fl cells. Nature of the test: cells. To be noted: Mus musculus, 72 h.
Procedure: Viability of CreER^T2 and EmptyER^T2 ITGA6^f/f BCR-ABL1^+ CreER^T2 and EmptyER^T2 cells were plated onto tissue culture plates (no further ligand coated) and treated with Tamoxifen (1.5 μM) and Nilotinib (0.02 μM or 0.2 μM) for 1 to 3 days. Cell viability was determined by trypan blue exclusion. Y axis indicates cell viability relative to initial.
Bone marrow cells from ITGA6fl/fl mice (Georges-Labouesse et al.) mice were harvested and retrovirally transformed by BCR-ABL1 (Pear et al.) in the presence of 10 ng IL7 (Peprotech) in Retronectin-(Takara) coated plates. All BCR-ABL1-transformed ALL cells derived from bone marrow of mice were maintained in Iscove's modified Dulbecco's medium (IMDM) with GlutaMAX containing 20% fetal bovine serum (Atlanta Biologica), 100 IU/ml penicillin, 100 μg/ml streptomycin (Invitrogen), and 50 μM 2-mercaptoethanol (Sigma-Aldrich) at 37° C. in a humidified incubator with 5% CO2. After cytokine-independent proliferation, BCR-ABL1 transformed ITGA6fl/fl cells were transduced retrovirally with EmptyERT2 or CreERT2. […] After 1 μg/ml puromycin selection, VLA6 deletion was induced in vitro by addition of 1.0 μM tamoxifen (Sigma-Aldrich). […]
The test system of test [2] is ITGA6fl/fl BCR/ABL1+ pre-B ALL cells. Kind of test: In vivo model of BCR-ABL1-transformed ITGA6fl/fl ALL in NOD/SCID mice, survival with Nilotinib. Further details: species or system mouse.
Procedure: A, Bioluminescence imaging was performed at indicated days post-ALL cells injection. […] C, D ITGA6 deletion was confirmed by FACS in BM cells of mice sacrificed at time of death of leukemia. E, Residual leukemia cells were determined in spleen and bone marrow by RT-PCR and F, PCR in the groups EmptyER^T2+Nilotinib and CreER^T2+Nilotinib.
Bone marrow cells from ITGA6fl/fl mice (Georges-Labouesse et al.) mice were harvested and retrovirally transformed by BCR-ABL1 (Pear et al.) in the presence of 10 ng IL7 (Peprotech) in Retronectin-(Takara) coated plates. All BCR-ABL1-transformed ALL cells derived from bone marrow of mice were maintained in Iscove's modified Dulbecco's medium (IMDM) with GlutaMAX containing 20% fetal bovine serum (Atlanta Biologica), 100 IU/ml penicillin, 100 μg/ml streptomycin (Invitrogen), and 50 μM 2-mercaptoethanol (Sigma-Aldrich) at 37° C. in a humidified incubator with 5% CO2. After cytokine-independent proliferation, BCR-ABL1 transformed ITGA6fl/fl cells were transduced retrovirally with EmptyERT2 or CreERT2. […] D-Luciferin (Promega) dissolved in PBS was injected intraperitoneally at a dose of 2.5 mg per mouse 15 minutes before measuring the luminescence signal. […] Mice were monitored for weight loss and other leukemia symptoms. Moribund mice were sacrificed and tissues were analyzed for leukemia cell infiltration to confirm leukemia as the cause of death.
To determine the effect of VLA6 deletion on leukemia progression in vivo, ITGA6 competent ITGA6fl/fl BCR/ABL1+ pre-B (B220+CD19+) CreERT2+ or control transduced ALL cells were lentivirally luciferase labeled and transferred into NOD/SCID mice (FIG. 6A). […] For this purpose, splenic cells and bone marrow cells of leukemia recipient animals were isolated and analyzed for BCR-ABL1 mRNA expression by RT-PCR (FIG. 6E) and BCR-ABL1 expression in genomic DNA by PCR (FIG. 6F).

By viability is commonly meant a per cent measure of how many cells are alive, often set against a control. For `Cc1cn(-c2cc(NC(=O)c3ccc(C)c(Nc4nccc(-c5cccnc5)n4)c3)cc(C(F)(F)F)c2)cn1` [Nilotinib], the viability at 0.02 µM came out at 10.2% in test [1] (read-out: Viability of leukemia cells, CreERT2 (ITGA6 deleted)) and 83.7% in test [1] (read-out: Viability of leukemia cells, EmptyERT2 (ITGA6 competent)). Moreover, the “Median survival time (MST), CreERT2 (ITGA6 deleted) leukemia” value in test [2] (n=5, Tamoxifen-induced in vivo deletion) is reported as “survived; also recorded: undefined”. Also, the “Median survival time (MST), EmptyERT2 (ITGA6 competent) leukemia” value in test [2] (n=6, days post-leukemia injection) was found to be 39.5 days.
